Assay results published in patent US11084807B2, “Piperazine derivatives, pharmaceutical compositions and methods of use thereof” (Vidac Pharma Ltd., priority 2016, dated 2021).
Read-outs that look alike come from different tables or passages of the source.

Tests used:
Format in all cases: cell-based
[1] = system: H358 Human lung carcinoma cell-line; assay: XTT cytotoxicity, H358 lung carcinoma cells
Procedure: (§1) The piperazine-derivatives were prepared as a stock of 50 mM in 100% DMSO (dimethyl sulfoxide). Piperazine-derivatives were added at concentration ranging from 0.03-10 uM for 72 hours. Each experimental point was performed in triplicates. Vehicle (DMSO)-treated cells were used as control. Dilutions were performed in culture medium and DMSO so that the final concentration of DMSO in each well was 0.5%.
(§2) Optical density representing viable cells was determined using the XTT Cell Proliferation Kit assay (sodium 2,3,-bis(2-methoxy-4-nitro-5-sulfophenyl)-5-[(phenylamino)-carbonyl]-2H-tetrazolium inner salt, Biological industries, Beit-Haemek, Israel).
(§3) Percentage of Optical density is directly proportional to the number of living cells in culture. Cytotoxicity (%) was calculated in the following way: [(OD of drug-treated cells-OD of background)/(OD of control cells-OD of background)]×100.
(§4) New piperazine derivatives were tested for cytotoxicity in 4 cancer cell lines:
C) H358—Human lung carcinoma cell-line
New piperazine derivatives (compounds of Formula (IV)) were tested for cytotoxicity in the H358 human lung carcinoma cell line. Table 2 below provides IC50 values for the tested compounds.
New piperazine derivatives (compounds of Formula (V)) were tested for cytotoxicity in the H358 human lung carcinoma cell line. Table 3 below provide IC50 values for the tested compounds.

[2] = system: Hela Human cervix adenocarcinoma cell-line; assay: XTT cytotoxicity, Hela cervix adenocarcinoma cells; settings: 72 hr
Procedure: as §1, §2, §3, §4
B) Hela—Human cervix adenocarcinoma cell-line

[3] = system: HCT116 Human colon carcinoma cell-line; assay: XTT cytotoxicity, HCT116 colon carcinoma cells; settings: HCT-116, 72 hr
Procedure: as §1, §2, §3, §4
A) HCT116—Human colon carcinoma cell-line

[4] = system: Panc-1 Human pancreatic carcinoma cell-line; assay: XTT cytotoxicity, Panc-1 pancreatic carcinoma cells; settings: Panc-1, XTT, 72 hr
Procedure: as §1, with “Piperazine-derivatives were added at concentration ranging from 0.03-10 uM for 72 hours.” left out
as §2, §3, §4
D) Panc-1—Human pancreatic carcinoma cell-line

PC3 prostate cancer line = assay: Cytotoxicity, PC3 prostate cancer cells; settings: 25 mM glucose, 1500 cell/well, 10% FCS, 72 hours, read-out: IC50 (μM), prostate cancer cell line (Table 4)
[5] = NCI-H358, H358 lung cancer line, 11.5 mM glucose, 5000 cell/well, 0.5% FCS, 72 hours, read-out: IC50 (μM), lung cancer cell line (Table 2)
[6] = NCI-H358, H358 lung cancer line, 11.5 mM glucose, 5000 cell/well, 0.5% FCS, 72 hours, read-out: IC50 (μM), lung cancer cell line (Table 3)
[7] = NCI-H358, H358, XTT, 72 hr (Table 1), read-out: IC50 (XTT, 72 hr) Lung H358

Row | Compound | IC50 [1, 5] | IC50 [2] | IC50 [4] | other results
1 | O=C(N1CCN(c2ccc(O)cc2)CC1)N1c2ccccc2Oc2ccccc21 [Compound 14] | 0.051 µM |  |  | 
2 | O=C(N1CCN(c2cc(F)cc(F)c2)CC1)N1c2ccccc2Oc2ccccc21 [Compound 13] | 0.0067 µM |  |  | 
3 | COc1ccccc1N1CCN(C(=O)N2c3ccccc3Oc3ccccc32)CC1 [Compound 12] | 0.0066 µM |  |  | 
4 | COc1cccc(N2CCN(C(=O)N3c4ccccc4Oc4ccccc43)CC2)c1 [Compound 11] | 0.0047 µM |  |  | 
5 | O=C(N1CCN(c2ccccc2)CC1)n1c2ccccc2c2ccccc21 [Compound 20] |  |  |  | IC50 [1, 6]: 0.027 µM
6 | O=C(C1c2ccccc2Sc2ccccc21)N1CCN(c2ccccc2)CC1 [Compound 3] | 0.43 µM | 500 nM | 310 nM | IC50 [1, 7]: 1.35 µM; IC50 [3]: 640 nM
7 | O=C(N1CCN(c2c(F)cccc2F)CC1)N1c2ccccc2Oc2ccccc21 [Compound 5] | 0.265 µM | 400 nM | 900 nM | IC50 [1, 7]: 0.84 µM; IC50 [3]: 1080 nM
8 | O=C(N1CCN(c2ccccc2)CC1)N1c2ccccc2Oc2ccccc21 [Compound 1] | 0.025 µM | 15 nM | 10 nM | IC50 (PC3 prostate cancer line): 0.026 µM; IC50 [1, 7]: 0.05 µM; IC50 [3]: 10 nM
9 | O=C(N1CCN(c2ccc(F)cc2)CC1)N1c2ccccc2Oc2ccccc21 [Compound 15] | 0.24 µM |  |  | 
10 | O=C(N1CCN(c2c(F)c(F)c(F)c(F)c2F)CC1)N1c2ccccc2Oc2ccccc21 [Compound 2] | > 10 µM | 1900 nM | > 30000 nM | 
11 | O=C(N1CCC(c2ccccc2)CC1)N1c2ccccc2Oc2ccccc21 [Compound 16] | 1.37 µM |  |  | 
12 | O=C(N1CCN(c2cc(F)cc(F)c2)CC1)n1c2ccccc2c2ccccc21 [Compound 23] |  |  |  | IC50 (PC3 prostate cancer line): 0.08 µM; IC50 [1, 6]: 0.009 µM
